Source: article PMC5963640 (Journal of Ocular Pharmacology and Therapeutics, 2018)
Read-outs that look alike come from different tables or passages of the source. Blank lines part the entries; values can stand above or below the molecule they belong to.

What was measured:
[1] = biological target: T1, myotonic dystrophy kinase-related CDC42-binding kinase alpha (MRCKA) (Homo sapiens, UniProt Q5VT25); experiment: Kinase-Glo luminescent protein kinase assay, MRCKA; assay type: biochemical; details: average of ≥3 replicate experiments
T1 construct: purchased Upstate

[2] = system: transformed human TM (HTM) cells (TM-1); experiment: Disruption of focal adhesions, high-content screening; assay type: cell-based; details: 6 h incubation, read-out: HTM IC50 (disruption of focal adhesions)
[3] = system: normotensive Formosan Rock monkeys; experiment: Ocular hypotensive activity (IOP) in monkeys; details: 0.5%, Day 3
[4] = biological target: T2, calcium/calmodulin-dependent protein kinase II Alpha (CAMK2A) (Homo sapiens, UniProt Q9UQM7); experiment: Kinase-Glo luminescent protein kinase assay, CAMK2A; assay type: biochemical; details: average of ≥3 replicate experiments; read-out: CAM2A Ki
T2 construct: purchased Invitrogen/Life Technologies

[5] = Absorption and distribution of radioactivity after single topical ocular dose; assay type: in vivo, Dutch Belted rabbits; details: for AUClast / Cmax / T1/2,e / Tmax: 14C-netarsudil 0.02% single topical ocular dose
Procedure: A single topical ocular dose of 0.02% ^14C-netarsudil mesylate (35 μL drop) was administered to both eyes of 3 male Dutch Belted rabbits in each of 7 groups. At 0.25, 0.5, 1, 4, 8, 24, and 48 h postdose, the following samples were harvested from each group: whole blood, derived plasma, AH, vitreous humor, cornea, conjunctiva, lens, iris/ciliary body, retina-choroid-plexus, liver, and kidneys. All samples were assayed for total radioactivity. A study of the same design was conducted for AR-12286, using a single topical ocular dose of 0.5% ^3H-AR-12286 (35 μL drop).

[6] = system: primary porcine TM (PTM) cells; experiment: Disruption of actin stress fibers, high-content screening; assay type: cell-based; details: for IC50: Sus scrofa, 6 h incubation, read-out: PTM IC50 (disruption of actin stress fibers)
[7] = biological target: T3, protein kinase C-theta (PKC-theta) (Homo sapiens, UniProt Q04759); experiment: Kinase-Glo luminescent protein kinase assay, PKC-theta; assay type: biochemical; details: average of ≥3 replicate experiments; read-out: PKCT Ki
T3 construct: purchased Invitrogen/Life Technologies

[8] = system: normotensive Dutch Belted rabbits; experiment: Ocular hypotensive activity (IOP) in rabbits
human donor eyes = details: perfused for 3 h; cited from earlier work
ROCK1 = biological target: T4, ROCK1 (Homo sapiens, UniProt Q13464); experiment: Kinase-Glo luminescent protein kinase assay, ROCK1; assay type: biochemical; details: ROCK1 and ROCK2
T4 construct: purchased Invitrogen/Life Technologies

[9] = biological target: norepinephrine transporter (NET) (Homo sapiens, UniProt P23975); experiment: NET inhibitory activity (data not shown)
mouse eyes = details: eyes perfused ∼1 h, cited from earlier work
[10] = male, Dutch Belted, rabbit, in vivo, topical or ocular
[11] = Aqueous humor, L eye, radioactivity
[12] = Aqueous humor, R eye, radioactivity
[13] = Conjuctiva, L eye, radioactivity
[14] = Conjuctiva, R eye, radioactivity
[15] = Iris-ciliary body, L eye, radioactivity
[16] = Iris-ciliary body, R eye, radioactivity
[17] = Retina-choroid-plexus, L eye, radioactivity
[18] = Retina-choroid-plexus, R eye, radioactivity
[19] = Vitreous humor, L eye, radioactivity
[20] = Vitreous humor, R eye, radioactivity

T3 sequence (Q04759 whole entry): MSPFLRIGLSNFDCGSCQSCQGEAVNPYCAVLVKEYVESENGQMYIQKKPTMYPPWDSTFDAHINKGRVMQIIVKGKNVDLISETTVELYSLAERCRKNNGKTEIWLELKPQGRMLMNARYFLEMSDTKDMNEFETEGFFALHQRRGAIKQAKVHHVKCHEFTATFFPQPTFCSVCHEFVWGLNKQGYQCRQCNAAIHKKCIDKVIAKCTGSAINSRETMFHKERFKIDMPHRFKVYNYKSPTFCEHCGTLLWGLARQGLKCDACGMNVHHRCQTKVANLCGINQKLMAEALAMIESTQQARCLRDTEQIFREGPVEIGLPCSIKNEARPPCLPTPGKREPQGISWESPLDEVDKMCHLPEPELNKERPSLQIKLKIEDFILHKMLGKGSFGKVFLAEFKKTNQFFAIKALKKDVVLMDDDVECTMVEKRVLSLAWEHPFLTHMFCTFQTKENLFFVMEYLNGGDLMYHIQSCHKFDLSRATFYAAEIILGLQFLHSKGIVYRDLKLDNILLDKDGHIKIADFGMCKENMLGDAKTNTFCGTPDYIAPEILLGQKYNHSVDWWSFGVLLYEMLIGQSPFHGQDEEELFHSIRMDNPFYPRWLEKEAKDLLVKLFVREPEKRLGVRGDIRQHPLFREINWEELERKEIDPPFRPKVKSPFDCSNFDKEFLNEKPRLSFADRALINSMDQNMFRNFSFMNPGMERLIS
T1 sequence (Q5VT25 whole entry): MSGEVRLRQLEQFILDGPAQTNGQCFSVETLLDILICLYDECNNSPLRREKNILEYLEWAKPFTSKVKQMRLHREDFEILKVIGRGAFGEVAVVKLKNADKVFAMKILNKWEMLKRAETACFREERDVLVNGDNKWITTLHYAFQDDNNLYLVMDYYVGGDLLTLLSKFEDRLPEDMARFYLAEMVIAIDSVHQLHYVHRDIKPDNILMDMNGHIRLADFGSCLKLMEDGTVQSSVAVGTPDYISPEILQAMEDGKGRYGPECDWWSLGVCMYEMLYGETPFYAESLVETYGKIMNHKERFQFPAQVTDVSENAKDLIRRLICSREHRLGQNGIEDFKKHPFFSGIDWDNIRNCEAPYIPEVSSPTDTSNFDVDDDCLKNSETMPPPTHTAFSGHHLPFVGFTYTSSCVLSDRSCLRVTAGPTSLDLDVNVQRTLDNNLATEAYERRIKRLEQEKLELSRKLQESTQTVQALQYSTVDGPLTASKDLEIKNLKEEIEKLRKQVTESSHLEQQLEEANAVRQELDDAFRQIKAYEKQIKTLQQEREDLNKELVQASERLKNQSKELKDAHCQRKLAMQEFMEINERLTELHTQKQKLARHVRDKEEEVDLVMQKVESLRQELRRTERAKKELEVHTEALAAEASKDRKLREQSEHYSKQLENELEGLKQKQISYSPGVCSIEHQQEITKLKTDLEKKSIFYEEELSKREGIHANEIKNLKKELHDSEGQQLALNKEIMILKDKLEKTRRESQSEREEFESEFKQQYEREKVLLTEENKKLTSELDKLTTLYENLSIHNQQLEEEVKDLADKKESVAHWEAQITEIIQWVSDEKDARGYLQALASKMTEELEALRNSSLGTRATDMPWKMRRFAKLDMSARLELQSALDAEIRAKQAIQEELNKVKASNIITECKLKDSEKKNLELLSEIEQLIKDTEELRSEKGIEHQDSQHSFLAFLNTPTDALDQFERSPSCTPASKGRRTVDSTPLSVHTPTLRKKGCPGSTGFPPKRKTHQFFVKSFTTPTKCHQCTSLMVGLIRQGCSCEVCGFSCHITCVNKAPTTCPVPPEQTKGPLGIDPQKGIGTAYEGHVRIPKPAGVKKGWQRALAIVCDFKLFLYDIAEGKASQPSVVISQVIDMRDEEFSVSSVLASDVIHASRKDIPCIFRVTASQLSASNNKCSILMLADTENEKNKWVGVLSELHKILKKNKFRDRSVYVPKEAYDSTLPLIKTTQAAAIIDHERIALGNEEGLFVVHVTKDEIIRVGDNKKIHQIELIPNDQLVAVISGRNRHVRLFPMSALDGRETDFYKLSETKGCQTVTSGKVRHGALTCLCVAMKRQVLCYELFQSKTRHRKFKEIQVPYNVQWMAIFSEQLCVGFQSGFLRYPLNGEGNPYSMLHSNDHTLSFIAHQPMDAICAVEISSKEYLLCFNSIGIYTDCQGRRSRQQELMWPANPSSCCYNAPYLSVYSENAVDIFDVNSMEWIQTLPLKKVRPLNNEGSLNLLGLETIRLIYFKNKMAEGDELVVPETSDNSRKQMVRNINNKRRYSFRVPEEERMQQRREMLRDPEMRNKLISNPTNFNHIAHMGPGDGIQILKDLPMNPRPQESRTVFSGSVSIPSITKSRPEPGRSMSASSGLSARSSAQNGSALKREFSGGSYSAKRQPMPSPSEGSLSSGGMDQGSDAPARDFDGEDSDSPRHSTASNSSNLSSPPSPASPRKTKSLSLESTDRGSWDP
T2 sequence (Q9UQM7 whole entry): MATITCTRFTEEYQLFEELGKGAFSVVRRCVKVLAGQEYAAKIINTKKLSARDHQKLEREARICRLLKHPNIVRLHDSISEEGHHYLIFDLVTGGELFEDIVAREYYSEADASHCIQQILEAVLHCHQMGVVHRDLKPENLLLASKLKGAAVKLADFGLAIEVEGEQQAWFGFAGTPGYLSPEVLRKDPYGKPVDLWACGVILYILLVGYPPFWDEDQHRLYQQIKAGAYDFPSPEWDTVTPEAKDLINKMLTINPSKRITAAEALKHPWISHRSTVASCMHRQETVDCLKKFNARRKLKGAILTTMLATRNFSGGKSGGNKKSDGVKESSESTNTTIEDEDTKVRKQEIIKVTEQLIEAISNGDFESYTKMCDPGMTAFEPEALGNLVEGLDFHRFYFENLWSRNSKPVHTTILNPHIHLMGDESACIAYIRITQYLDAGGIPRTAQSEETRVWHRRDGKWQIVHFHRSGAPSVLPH
Sequence of norepinephrine transporter (NET) (P23975 whole entry, species assumed, the tested form may be a part): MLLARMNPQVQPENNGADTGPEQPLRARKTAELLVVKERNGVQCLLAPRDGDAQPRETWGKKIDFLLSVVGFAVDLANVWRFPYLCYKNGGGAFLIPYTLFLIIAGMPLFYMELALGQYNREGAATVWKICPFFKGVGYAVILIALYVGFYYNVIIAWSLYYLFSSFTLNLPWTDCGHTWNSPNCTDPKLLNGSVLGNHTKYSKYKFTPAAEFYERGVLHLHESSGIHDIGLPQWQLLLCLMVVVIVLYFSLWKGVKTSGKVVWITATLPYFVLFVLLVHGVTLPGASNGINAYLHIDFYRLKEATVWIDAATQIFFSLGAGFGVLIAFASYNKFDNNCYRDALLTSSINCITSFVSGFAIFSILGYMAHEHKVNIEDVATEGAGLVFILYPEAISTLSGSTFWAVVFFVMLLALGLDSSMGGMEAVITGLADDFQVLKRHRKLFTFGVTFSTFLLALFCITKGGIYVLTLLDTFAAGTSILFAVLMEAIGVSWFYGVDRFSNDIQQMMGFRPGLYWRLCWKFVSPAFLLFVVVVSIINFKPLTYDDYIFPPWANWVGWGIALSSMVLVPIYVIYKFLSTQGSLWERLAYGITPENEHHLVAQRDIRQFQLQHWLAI
T4 sequence (Q13464 whole entry): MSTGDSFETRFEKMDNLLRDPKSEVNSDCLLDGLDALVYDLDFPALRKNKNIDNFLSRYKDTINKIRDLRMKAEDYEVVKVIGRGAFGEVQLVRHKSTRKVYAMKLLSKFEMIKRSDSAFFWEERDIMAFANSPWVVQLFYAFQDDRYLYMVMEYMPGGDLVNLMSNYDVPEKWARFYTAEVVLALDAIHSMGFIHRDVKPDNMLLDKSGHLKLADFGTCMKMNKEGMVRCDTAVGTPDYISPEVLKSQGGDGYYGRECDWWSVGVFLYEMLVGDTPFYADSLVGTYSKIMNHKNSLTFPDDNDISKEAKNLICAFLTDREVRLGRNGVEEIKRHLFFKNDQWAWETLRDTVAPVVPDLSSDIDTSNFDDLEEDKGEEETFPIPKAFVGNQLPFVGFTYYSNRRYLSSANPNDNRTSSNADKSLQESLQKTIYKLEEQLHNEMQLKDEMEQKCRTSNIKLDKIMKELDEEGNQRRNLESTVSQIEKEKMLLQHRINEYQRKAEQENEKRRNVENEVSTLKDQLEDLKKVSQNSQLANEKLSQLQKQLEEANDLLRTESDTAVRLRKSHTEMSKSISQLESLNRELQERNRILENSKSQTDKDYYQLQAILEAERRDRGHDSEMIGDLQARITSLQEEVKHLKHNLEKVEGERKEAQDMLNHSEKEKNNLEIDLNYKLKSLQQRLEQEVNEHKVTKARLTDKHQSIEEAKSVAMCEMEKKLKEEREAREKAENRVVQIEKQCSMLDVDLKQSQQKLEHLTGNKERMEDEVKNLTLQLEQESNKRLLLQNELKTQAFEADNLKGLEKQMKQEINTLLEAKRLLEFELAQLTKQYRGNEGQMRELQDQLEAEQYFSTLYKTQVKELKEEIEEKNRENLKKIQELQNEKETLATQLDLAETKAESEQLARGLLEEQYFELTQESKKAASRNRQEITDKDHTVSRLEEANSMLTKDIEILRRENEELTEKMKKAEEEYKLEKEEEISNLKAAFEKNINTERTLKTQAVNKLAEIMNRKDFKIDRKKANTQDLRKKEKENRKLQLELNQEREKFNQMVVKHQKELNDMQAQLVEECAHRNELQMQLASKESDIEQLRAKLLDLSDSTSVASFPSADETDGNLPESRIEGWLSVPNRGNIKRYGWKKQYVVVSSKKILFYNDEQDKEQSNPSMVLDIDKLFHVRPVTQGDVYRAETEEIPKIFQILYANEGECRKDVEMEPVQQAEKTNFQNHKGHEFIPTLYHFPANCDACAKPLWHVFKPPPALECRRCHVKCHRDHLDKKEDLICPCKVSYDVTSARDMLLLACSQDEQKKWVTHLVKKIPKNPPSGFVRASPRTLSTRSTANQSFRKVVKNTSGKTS

Structure (SMILES): O=S(=O)(c1cccc2cnccc12)N1CCCNCC1 [Fasudil, reference compound]
IC50 [2]: 3940 nM | IC50 [6]: 10100 nM

Structure (SMILES): CC(N)[C@H]1CC[C@H](C(=O)Nc2ccncc2)CC1 (stereo partly drawn) [Y27632, reference compound]
IC50 [2]: 1740 nM | IC50 [6]: 9970 nM

Structure (SMILES): Cc1ccc(C(=O)OCc2ccc([C@@H]([14CH2]N)C(=O)Nc3ccc4cnccc4c3)cc2)c(C)c1 [^14C-Netarsudil]
AUClast [5, 11]: 510 ng·eq·h/g | Cmax [5, 11]: 16 ng·eq/g | T1/2,e [5, 11]: 17 h | Tmax [5, 11]: 8 h | AUClast [5, 12]: 613 ng·eq·h/g | Cmax [5, 12]: 23 ng·eq/g | T1/2,e [5, 12]: 16 h | Tmax [5, 12]: 8 h | AUClast ([5]; Blood, radioactivity): 15 ng·eq·h/g | Cmax ([5]; Blood, radioactivity): 1 ng·eq/g | T1/2,e ([5]; Blood, radioactivity): 27 h | Tmax ([5]; Blood, radioactivity): 0.25 h | AUClast [5, 13]: 9,525 ng·eq·h/g | Cmax [5, 13]: 2,442 ng·eq/g | T1/2,e [5, 13]: 13 h | Tmax [5, 13]: 0.25 h | AUClast [5, 14]: 12,390 ng·eq·h/g | Cmax [5, 14]: 3,292 ng·eq/g | T1/2,e [5, 14]: 17 h | Tmax [5, 14]: 0.25 h | AUClast ([5]; Cornea, L eye, radioactivity): 63,387 ng·eq·h/g | Cmax ([5]; Cornea, L eye, radioactivity): 3,666 ng·eq/g | T1/2,e ([5]; Cornea, L eye, radioactivity): 14 h | Tmax ([5]; Cornea, L eye, radioactivity): 0.5 h | AUClast ([5]; Cornea, R eye, radioactivity): 69,605 ng·eq·h/g | Cmax ([5]; Cornea, R eye, radioactivity): 3,972 ng·eq/g | T1/2,e ([5]; Cornea, R eye, radioactivity): 13 h | Tmax ([5]; Cornea, R eye, radioactivity): 0.25 h | AUClast [5, 15]: 10,845 ng·eq·h/g | Cmax [5, 15]: 955 ng·eq/g | Tmax [5, 15]: 0.25 h | AUClast [5, 16]: 11,555 ng·eq·h/g | Cmax [5, 16]: 416 ng·eq/g | T1/2,e [5, 16]: 112 h | Tmax [5, 16]: 8 h | AUClast ([5]; Kidney, radioactivity): 298 ng·eq·h/g | Cmax ([5]; Kidney, radioactivity): 19 ng·eq/g | T1/2,e ([5]; Kidney, radioactivity): 16 h | Tmax ([5]; Kidney, radioactivity): 1 h | AUClast ([5]; Lens, L eye, radioactivity): 33 ng·eq·h/g | Cmax ([5]; Lens, L eye, radioactivity): 2 ng·eq/g | T1/2,e ([5]; Lens, L eye, radioactivity): 99 h | Tmax ([5]; Lens, L eye, radioactivity): 0.25 h | AUClast ([5]; Lens, R eye, radioactivity): 37 ng·eq·h/g | Cmax ([5]; Lens, R eye, radioactivity): 2 ng·eq/g | T1/2,e ([5]; Lens, R eye, radioactivity): 83 h | Tmax ([5]; Lens, R eye, radioactivity): 0.25 h | AUClast ([5]; Liver, radioactivity): 88 ng·eq·h/g | Cmax ([5]; Liver, radioactivity): 6 ng·eq/g | T1/2,e ([5]; Liver, radioactivity): 13 h | Tmax ([5]; Liver, radioactivity): 1 h | AUClast ([5]; Plasma, radioactivity): 24 ng·eq·h/g | Cmax ([5]; Plasma, radioactivity): 1 ng·eq/g | T1/2,e ([5]; Plasma, radioactivity): 16 h | Tmax ([5]; Plasma, radioactivity): 0.5 h | AUClast [5, 17]: 1,390 ng·eq·h/g | Cmax [5, 17]: 80 ng·eq/g | T1/2,e [5, 17]: 204 h | Tmax [5, 17]: 0.25 h | AUClast [5, 18]: 1,298 ng·eq·h/g | Cmax [5, 18]: 50 ng·eq/g | T1/2,e [5, 18]: 68 h | Tmax [5, 18]: 0.5 h | AUClast [5, 19]: 51 ng·eq·h/g | Cmax [5, 19]: 7 ng·eq/g | T1/2,e [5, 19]: 12 h | Tmax [5, 19]: 0.25 h | AUClast [5, 20]: 51 ng·eq·h/g | Cmax [5, 20]: 4 ng·eq/g | T1/2,e [5, 20]: 15 h | Tmax [5, 20]: 0.25 h | Tmax in AH ([5]; netarsudil 0.02% single topical ocular dose, radioactivity): 8 h

The remaining molecules from weak to strong by IC50 [2], led by results:

Ki [1]: 28 nM | IC50 [2]: 818 nM | Ki [4]: 5850 nM | T1/2,e values [5, 10]: 9 to 41 h | Tmax in AH [5, 10]: 0.25 to 0.5 h | terminal elimination half-life (T1/2,e) in AH [5, 10]: 9 to 11 h | IC50 [6]: 924 nM | Ki [7]: 9320 nM
Structure (SMILES): CN(C)C(C(=O)Nc1ccc2c(=O)[nH]ccc2c1)c1ccsc1 (stereo not drawn) [AR-12286]
IOP reduction ([3]; 4 h after dosing): 5.6 ± 0.3 mmHg | IOP reduction ([3]; 24 h after dosing): 3.9 ± 0.3 mmHg | IOP reduction ([8]; 0.5%, 8 h after dosing on Day 3): 2.9 ± 0.2 mmHg | time of peak IOP-lowering efficacy after dosing ([8]; Day 1): 0.5 h

fold greater activity against Rho kinase than netarsudil (ROCK1): 5 fold | Ki [1]: 7 nM | IC50 [2]: 3 nM | NET inhibitory activity [9]: does not inhibit NET | Ki [4]: 13700 nM | IC50 [6]: 22 nM | Ki [7]: 27 nM
Structure (SMILES): NC[C@@H](C(=O)Nc1ccc2cnccc2c1)c1ccc(CO)cc1 [Netarsudil-M1]
increase in outflow facility relative to control eyes (human donor eyes): 59.7% | fold greater activity than netarsudil for disruption of actin stress fibers and focal adhesions ([6]; PTM and HTM cell-based assays): ~5 fold | increase in outflow facility (mouse eyes; C57 mice): 56% | increase in outflow facility (mouse eyes; CD1 mice): 91%
